# Reference: US20240124444A1 (Celgene Corporation, priority 2020, published 2024)
# Like-named read-outs stand apart in the source and are kept apart here.
# System: C. parvum strain UGA1
# Test: C. parvum growth inhibition assay (Nluc luminescence in HCT-8 cells)
# Format: cell-based, Cryptosporidium parvum
# Details: for EC50: C. parvum growth inhibition in HCT-8 cells, 48 hours, 6 concentrations 10-0.04 μM; for inhibition at 1 µM / inhibition at 10 µM: HCT-8; for inhibition at 1 µM: read-out: % inh @ 1 uM C. parvum; for inhibition at 10 µM: read-out: % inh @ 10 uM C. parvum
# [1] = Cryptosporidium parvum, HCT-8, 48 h
# [2] = Cryptosporidium parvum, single point inhibition at 1 uM
# [3] = Cryptosporidium parvum, single point inhibition at 10 uM
# [4] = Cryptosporidium parvum, single point inhibition @ 1 uM
# [5] = Cryptosporidium parvum, single point inhibition @ 10 uM
Structure (SMILES),EC50 [1],inhibition at 1 µM [2],inhibition at 10 µM [3],inhibition at 1 µM [4],inhibition at 10 µM [5],other results
"Cn1c(-c2ccnc(NCC(F)(F)F)c2)cc2cnc(NC3CCOCC3)cc21 [Example 382, 1-methyl-N-(tetrahydro-2H-pyran-4-yl)-2-(2-(2,2,2-trifluoroethylamino)pyridin-4-yl)-1H-pyrrolo[3,2-c]pyridin-6-amine]",> 1 µM,,,,,
"c1ccc(Nc2cc3[nH]c(-c4ccccc4)cc3cn2)cc1 [Example 271, N,2-diphenyl-1H-pyrrolo[3,2-c]pyridin-6-amine]",,0 to 33%,0 to 33%,,,
"COc1cc(-c2cc3cnc(NC4CCOCC4)cc3n2C)ncn1 [Example 388, 2-(6-methoxypyrimidin-4-yl)-1-methyl-N-(tetrahydro-2H-pyran-4-yl)-1H-pyrrolo[3,2-c]pyridin-6-amine]",> 1 µM,,,,,
"Cn1cc(C(=O)Nc2cc3c(cn2)cc(-c2ccnc(NCC(F)(F)F)n2)n3CCO)cn1 [Example 80, N-(1-(2-hydroxyethyl)-2-(2-(2,2,2-trifluoroethylamino)pyrimidin-4-yl)-1H-pyrrolo[3,2-c]pyridin-6-yl)-1-methyl-1H-pyrazole-4-carboxamide]",> 1 µM,,,0 to 33%,33 to 66%,
"N#Cc1cc(-c2cc3cnc(Nc4cccc(-c5nnc[nH]5)c4)cc3[nH]2)ccn1 [Example 79, 4-(6-(3-(4H-1,2,4-triazol-3-yl)phenylamino)-1H-pyrrolo[3,2-c]pyridin-2-yl)picolinonitrile]",> 1 µM,,,33 to 66%,67 to 100%,
"O=C(Nc1cc2[nH]c(-c3ccc(F)nc3)cc2cn1)C1CC1 [Example 248, N-(2-(6-fluoropyridin-3-yl)-1H-pyrrolo[3,2-c]pyridin-6-yl)cyclopropanecarboxamide]",,0 to 33%,0 to 33%,,,
"Cc1cc(-c2cc3cnc(NC(=O)c4cccc5[nH]ncc45)cc3[nH]2)ccn1 [Example 289, N-(2-(2-methylpyridin-4-yl)-1H-pyrrolo[3,2-c]pyridin-6-yl)-1H-indazole-4-carboxamide]",,0 to 33%,0 to 33%,,,
"Cc1cc(-c2cc3cnc(NC(=O)C4CC4)cc3n2CCO)ccn1 [Example 93, N-(1-(2-hydroxyethyl)-2-(2-methylpyridin-4-yl)-1H-pyrrolo[3,2-c]pyridin-6-yl)cyclopropanecarboxamide]",> 1 µM,,,0 to 33%,0 to 33%,
"Cn1cc(C(=O)Nc2cc3[nH]c(-c4ccnc(O[C@H]5CC[C@H](O)CC5)n4)cc3cn2)cn1 [Example 85, N-(2-(2-((1r,4r)-4-hydroxycyclohexyloxy)pyrimidin-4-yl)-1H-pyrrolo[3,2-c]pyridin-6-yl)-1-methyl-1H-pyrazole-4-carboxamide]",> 1 µM,,,67 to 100%,0 to 33%,
"CCOc1nccc(-c2cc3cnc(NC4CCOCC4)cc3[nH]2)n1 [Example 377, 2-(2-ethoxypyrimidin-4-yl)-N-(tetrahydro-2H-pyran-4-yl)-1H-pyrrolo[3,2-c]pyridin-6-amine]",> 1 µM,,,,,
"COc1nccc(-c2cc3cnc(NC(=O)C4CC4)cc3n2CCO)n1 [Example 343, N-(1-(2-hydroxyethyl)-2-(2-methoxypyrimidin-4-yl)-1H-pyrrolo[3,2-c]pyridin-6-yl)cyclopropanecarboxamide]",> 1 µM,,,,,
"CNc1cc2c(cn1)cc(-c1cc(C)ncn1)n2C [Example 126, N,1-dimethyl-2-(6-methylpyrimidin-4-yl)-1H-pyrrolo[3,2-c]pyridin-6-amine]",> 1 µM,,,,,
"Cn1cnc(-c2cc3cnc(NC4CCOCC4)cc3[nH]2)c1 [Example 123, 2-(1-methyl-1H-imidazol-4-yl)-N-(tetrahydro-2H-pyran-4-yl)-1H-pyrrolo[3,2-c]pyridin-6-amine]",> 1 µM,,,,,
"Cc1cc(-c2cc3cnc(NC4CCOC4)cc3[nH]2)ccn1 (stereo in doubt) [Example 52, (S)-2-(2-methylpyridin-4-yl)-N-(tetrahydrofuran-3-yl)-1H-pyrrolo[3,2-c]pyridin-6-amine]",> 1 µM,,,,,
"Cn1cc(C(=O)Nc2cc3[nH]c(-c4ccnc(OCC(F)F)n4)cc3cn2)cn1 [Example 310, N-(2-(2-(2,2-difluoroethoxy)pyrimidin-4-yl)-1H-pyrrolo[3,2-c]pyridin-6-yl)-1-methyl-1H-pyrazole-4-carboxamide]",,0 to 33%,0 to 33%,,,
"Cc1cc2cnc(NC(=O)c3cnn(C)c3)cc2[nH]1 [Example 285, 1-methyl-N-(2-methyl-1H-pyrrolo[3,2-c]pyridin-6-yl)-1H-pyrazole-4-carboxamide]",,0 to 33%,0 to 33%,,,
"N#Cc1cc(-c2cc3cnc(Nc4cccc(C5CCOCC5)c4)cc3[nH]2)ccn1 [Example 54, 4-(6-(3-(tetrahydro-2H-pyran-4-yl)phenylamino)-1H-pyrrolo[3,2-c]pyridin-2-yl)picolinonitrile]",> 1 µM,,,0 to 33%,67 to 100%,

Structure (SMILES),EC50 [1],inhibition at 1 µM [2],inhibition at 10 µM [3],inhibition at 1 µM [4],inhibition at 10 µM [5],other results
"O=C(Nc1cc2[nH]c(-c3ccncc3)cc2cn1)C1CCCCC1 [Example 217, N-(2-(pyridin-4-yl)-1H-pyrrolo[3,2-c]pyridin-6-yl)cyclohexanecarboxamide]",,0 to 33%,33 to 66%,,,
"O=C(Nc1cc2[nH]c(-c3cccnc3)cc2cn1)C1CCCC1 [Example 276, N-(2-(pyridin-3-yl)-1H-pyrrolo[3,2-c]pyridin-6-yl)cyclopentanecarboxamide]",,0 to 33%,0 to 33%,,,
"Cn1cc(-c2cc3cnc(NC(=O)C4CC4)cc3n2C)cn1 [Example 102, N-(1-methyl-2-(1-methyl-1H-pyrazol-4-yl)-1H-pyrrolo[3,2-c]pyridin-6-yl)cyclopropanecarboxamide]",> 1 µM,,,,,
"CCOc1nccc(-c2cc3cnc(NC(=O)c4cnn(CCO)c4C)cc3[nH]2)n1 [Example 230, N-(2-(2-ethoxypyrimidin-4-yl)-1H-pyrrolo[3,2-c]pyridin-6-yl)-1-(2-hydroxyethyl)-5-methyl-1H_ pyrazole-4-carboxamide]",,0 to 33%,33 to 66%,,,
"Cc1nccc(-c2cc3cnc(NC(=O)C4CCC4)cc3[nH]2)n1 [Example 99, N-(2-(2-methylpyrimidin-4-yl)-1H-pyrrolo[3,2-c]pyridin-6-yl)cyclobutanecarboxamide]",> 1 µM,,,,,
"O=C(Nc1cc2[nH]c(-c3ccnc(OCCC(F)(F)F)n3)cc2cn1)c1cnn([C@H]2CC[C@H](O)CC2)c1 [Example 216, 1-((1r,4r)-4-hydroxycyclohexyl)-N-(2-(2-(3,3,3-trifluoropropoxy)pyrimidin-4-yl)-1H-pyrrolo[3,2-c]pyridin-6-yl)-1H-pyrazole-4-carboxamide]",,0 to 33%,67 to 100%,,,
"COc1nccc(-c2cc3cnc(NC(=O)[C@H]4C[C@H](O)C4)cc3[nH]2)n1 [Example 63, (1r,3r)-3-hydroxy-N-(2-(2-methoxypyrimidin-4-yl)-1H-pyrrolo[3,2-c]pyridin-6-yl)cyclobutanecarboxamide]",> 1 µM,,,0 to 33%,67 to 100%,
"COc1cc(Nc2cc3[nH]c(-c4ccncc4)cc3cn2)cc(-n2cncn2)c1 [Example 140, N-(3-methoxy-5-(1H-1,2,4-triazol-1-yl)phenyl)-2-(pyridin-4-yl)-1H-pyrrolo[3,2-c]pyridin-6-amine]",,,,0 to 33%,67 to 100%,
"CC(C)n1cc(C(=O)Nc2cc3[nH]c(-c4ccnc(OCCC(F)(F)F)n4)cc3cn2)cn1 [Example 175, 1-isopropyl-N-(2-(2-(3,3,3-trifluoropropoxy)pyrimidin-4-yl)-1H-pyrrolo[3,2-c]pyridin-6-yl)-1H-pyrazole-4-carboxamide]",,,,0 to 33%,67 to 100%,
"Cc1cc(-c2cc3cnc(N(C)C(=O)C4CC4)cc3[nH]2)ccn1 [Example 86, N-methyl-N-(2-(2-methylpyridin-4-yl)-1H-pyrrolo[3,2-c]pyridin-6-yl)cyclopropanecarboxamide]",> 1 µM,,,33 to 66%,0 to 33%,
"Cc1cc(-c2cc3cnc(NC(=O)c4cccc5cn[nH]c45)cc3[nH]2)ccn1 [Example 237, N-(2-(2-methylpyridin-4-yl)-1H-pyrrolo[3,2-c]pyridin-6-yl)-1H-indazole-7-carboxamide]",,0 to 33%,33 to 66%,,,
"Cc1cc(-c2cc3cnc(NC(=O)C4CC4)cc3n2C(C)C)ccn1 [Example 329, N-(1-isopropyl-2-(2-methylpyridin-4-yl)-1H-pyrrolo[3,2-c]pyridin-6-yl)cyclopropanecarboxamide]",,0 to 33%,0 to 33%,,,
"CCOc1nccc(-c2cc3cnc(NC(=O)c4cccc5cn[nH]c45)cc3[nH]2)n1 [Example 243, N-(2-(2-ethoxypyrimidin-4-yl)-1H-pyrrolo[3,2-c]pyridin-6-yl)-1H-indazole-7-carboxamide]",,0 to 33%,0 to 33%,,,
Cc1cc(-c2cc3cnc(NC4CCOCC4)cc3[nH]2)ncn1 [Example 38],> 1 µM,,,,,
"Cc1cc(-c2cc3cnc(N[C@@H]4CCOC4)cc3[nH]2)ccn1 [Example 13, (R)-2-(2-Methylpyridin-4-yl)-N-(tetrahydrofuran-3-yl)-1H-pyrrolo[3,2-c]pyridin-6-amine]",,,,33 to 66%,67 to 100%,EC50: 0.5 to 1 µM
"Cc1cc(Nc2cc3[nH]c(-c4ccncc4)cc3cn2)nn1C(C)C [Example 168, N-(1-isopropyl-5-methyl-1H-pyrazol-3-yl)-2-(pyridin-4-yl)-1H-pyrrolo[3,2-c]pyridin-6-amine]",,,,33 to 66%,67 to 100%,
"CCc1cc2cnc(NC3CCOCC3)cc2[nH]1 [Example 361, 2-ethyl-N-(tetrahydro-2H-pyran-4-yl)-1H-pyrrolo[3,2-c]pyridin-6-amine]",> 1 µM,,,,,
